The series relates to rabbit corneal epithelial cells. As to the kind of experiment: Cytotoxicity, Neutral red assay. The conditions noted are these: cultured 2 days. It is filed as cell-based. The procedure:
Cytotoxicity of the compound (3) was evaluated by conducting a test according to the method of Neutral red assay using rabbit corneal epithelial cells of a CornePack kit (Kurabo Industries, Ltd.). The frozen cells of the primary culture were inoculated at a density of 4000 cells/cm^2 in a 25-cm^2 flask. The cells were cultured at 37° C. under an atmosphere of 5% CO2 for 5 days (the secondary culture) and then 100 μl aliquots of them were inoculated in the wells of a 96-well multi-plate at a cell density of 2500 cells/well. The culture was continued at 37° C. under an atmosphere of 5% CO2 for 3 days (tertiary culture). […] A 100 μl aliquot of the solutions was added into each well containing the corneal epithelial cells of the tertiary culture. The cells were further cultured at 37° C. under an atmosphere of 5% CO2 for 2 days. A 100 μl aliquot of a Neutral red solution (about 150 μg/ml) was added into each well. The cells were further cultured at 37° C. under an atmosphere of 5% CO2 for 2 hours to incorporate Neutral red into lysosomes of the viable cells. Then the culture supernatants were discarded by inverting the plate. A 200 μl aliquot of a solution containing formalin and calcium chloride were added into each well and the cells were fixed for 1 minute to improve the cell adhesion to the plate. The remaining Neutral red was washed out from the wells. Subsequently, the supernatants in the wells were discarded and 100 μl aliquots of a mixture consisting of acetic acid and ethanol were added to the wells. The plate was allowed to stand for 20 minutes to extract Neutral red incorporated in the viable cells. The amount of Neutral red was determined by measuring the absorbance at a wavelength of 540 nm. The averaged absorbance value of the blank (the measured value, which was obtained by the same assay procedure but in the absence of Neutral red, for the untreated control cells cultured under the same condition) was subtracted from the measured value of the sample to give the correction absorbance value. The viable cell rate was calculated from the ratio of the sample absorbance to the absorbance for the untreated cells according to the following equation. Viable cell rate in each plate=(Averaged absorbance of each test solution/Averaged absorbance of the untreated control)×100

Consider Benzalkonium chloride, for which the Viable cell rate (test solution 0.5 μg/ml) is 60%, the Viable cell rate (test solution 1.0 μg/ml) is 52%, the Viable cell rate (test solution 2.5 μg/ml) came to 49% and the Viable cell rate (test solution 5.0 μg/ml) is 2%.

As to `N=C(NCCCCCCNC(=N)NC(=N)Nc1ccc(Cl)cc1)NC(=N)Nc1ccc(Cl)cc1.O=C(O)[C@H](O)[C@@H](O)[C@H](O)[C@H](O)CO.O=C(O)[C@H](O)[C@@H](O)[C@H](O)[C@H](O)CO` [Chlorhexidine gluconate], the Viable cell rate is, setting by setting: (test solution 1.0 μg/ml) 103%; (test solution 2.5 μg/ml) 74%; (test solution 5.0 μg/ml) 49%; (test solution 10.0 μg/ml) 3%.

Values taken from patent US6528048B1, “Ophthalmic solutions” (Rohto Pharmaceutical Co., Ltd., priority 1998, dated 2003).
